{"source": "patent US12545706B2", "about": "“Pharmaceutical composition for preventing or treating Behcet's disease and rheumatoid arthritis, containing peptide or mixture thereof as active ingredient” (AJOU UNIVERSITY INDUSTRY-ACADEMIC COOPERATION FOUNDATION, priority 2019, dated 2026)", "key": {"[1]": {"assay": "Retention of fluorescently labeled peptide in abdominal cavity (FACS of intraperitoneal macrophages)", "assay_type": "in vivo, mouse", "conditions": "for stability in vivo: conclusion from FIG. 9 and FIG. 10", "procedure": "After intraperitoneal injection of the fluorescently labeled peptide P4 into mice, intraperitoneal macrophages were isolated, and the frequency of fluorescently labeled macrophages was analyzed by FACS to measure the retention time of the peptides in the abdominal cavity, which was shown in FIG. 9.\nIn addition, the P1, P2, and P4 peptides were labeled with each different fluorescence, and the three types were mixed and administered to normal mice."}, "[2]": {"tested_on": "mouse animal model with Behcet's disease (HSV type 1 infected ICR mice)", "assay": "Therapeutic effect on skin ulcers and skin inflammation in mouse animal model with Behcet's disease", "assay_type": "in vivo", "conditions": "peptides administered respectively; symptoms visually checked; FIG. 1", "procedure": "Male ICR mice (4-5 weeks of age) were infected with HSV type 1 (1×10^6, 20 μL) grown in Vero cells as previously reported (S. Sohn et al., Eur J Dermatol, 8 (1): 21-23, 1998). 10 days after the first virus inoculation, the mice were infected twice by inoculating the virus again and monitored for 32 weeks. Animals were treated according to the guidelines provided by Institutional Animal Care and Use Committee (IACUC) of School of Medicine at Ajou University. The study protocol was approved by IACUC (Approval No.: AMC-2016-0010).\nSymptoms include skin ulcers, skin pustule, genital ulcers, erythema, mouth ulcers, ear inflammation, arthritis, red eyes (left and right), decreased visual acuity (left and right), weight loss, and facial swelling. Mouth ulcers, genital ulcers, skin ulcers, and eye symptoms were classified as major symptoms while the other symptoms were mild.\nMice showing one or more major symptoms with one mild symptom were considered as BD mice, the score for each symptom was calculated as 1, and the sum of the scores was used to determine the severity of BD. When symptoms disappeared or the size of the lesion was reduced by 20% or more, it was classified as symptom improved state. The disease severity score for BD was calculated based on the BD Activity Index as described in the BD Activity Form (www.behcet.ws/pdf/BehcetsDiseaseActivityForm.pdf). […]"}, "[3]": {"tested_on": "CD4+CD25+ cells, CD4+CD25+FoxP3+ cells, IL-17+ cells", "assay": "Flow cytometry (FACS) of cells isolated from treated arthritis mouse model", "assay_type": "in vivo", "design": "IL-17: unit not given here"}, "[4]": {"tested_on": "mouse model with collagen-induced arthritis", "assay": "Severity of arthritis in mouse model with collagen-induced arthritis", "assay_type": "in vivo", "procedure": "To prepare a mouse model with rheumatoid arthritis, subcutaneous injection (first immunization) was performed on the tail of a group of 8-week-old male ICR normal mice (average weight: 20 g) injected with 50 μg of a mixture obtained by mixing type II collagen with Complete Freund's adjuvant (CFA) and paraffin oil in the same amount. Two weeks later, the same substance was subcutaneously injected into the tail in the same manner to prepare an animal model with rheumatoid arthritis.\nIn the same manner as in Example 2, the mixture of P1, P2 and P4 peptides (P124) prepared in Example 1 was administered to the skin of mice as an external skin preparation.\nIn addition, the peptide mixture (P124) was treated as an external skin preparation once a day for 10 consecutive days, the arthritis treatment effect was checked after 5 weeks, and the results were shown in FIG. 5."}, "[5]": {"conditions": "intraperitoneal injection, intraperitoneal macrophages, FIG. 9"}, "[6]": {"conditions": "FACS frequency, Table 1, in % (unit assumed)"}}, "note": "Where a SMILES comes first, the peptide text is derived from it.", "data": [{"compound": "CC(C)[C@H](NC(=O)[C@H](CCCCN)NC(=O)[C@H](CC(N)=O)NC(=O)[C@H](CS)NC(=O)[C@@H](N)Cc1ccc(O)cc1)C(=O)N[C@@H](Cc1c[nH]cn1)C(=O)N[C@H](C(=O)N[C@@H](CS)C(=O)N[C@@H](CCCNC(=N)N)C(=O)N[C@@H](CC(N)=O)C(=O)NCC(=O)O)[C@@H](C)O", "note": "[P2, YCNKVHTCRNG] (H-YCNKVHTCRNG-OH; N-terminus and C-terminus assumed)", "values": [{"measurement": "stability in vivo", "setting": "[1]", "result": "stably maintained"}]}, {"compound": "ENICFKRFYEGNLLGKRYPRGCA [P5]", "values": [{"measurement": "skin ulcers and skin inflammation", "setting": "[2]", "result": "alleviated"}]}, {"compound": "CC[C@H](C)[C@H](NC(=O)[C@@H](N)CC(C)C)C(=O)N[C@@H](CS)C(=O)N1CCC[C@H]1C(=O)N[C@@H](CCC(=O)O)C(=O)N[C@@H](CCCCN)C(=O)N[C@@H](Cc1ccc(O)cc1)C(=O)N[C@@H](CS)C(=O)N[C@@H](CC(N)=O)C(=O)N[C@@H](CCCCN)C(=O)N[C@H](C(=O)N[C@@H](Cc1c[nH]cn1)C(=O)N[C@H](C(=O)O)[C@@H](C)O)C(C)C", "note": "[P1, LICPEKYCNKVHT] (H-LICPEKYCNKVHT-OH; N-terminus and C-terminus assumed)", "values": [{"measurement": "stability in vivo", "setting": "[1]", "result": "stably maintained"}]}, {"compound": "CC[C@H](C)[C@H](NC(=O)[C@H](CC(N)=O)NC(=O)[C@H](CCC(=O)O)NC(=O)CNC(=O)[C@H](CC(N)=O)NC(=O)[C@H](CCCNC(=N)N)NC(=O)[C@H](CS)NC(=O)[C@@H](NC(=O)[C@@H](N)Cc1c[nH]cn1)[C@@H](C)O)C(=O)N[C@@H](CS)C(=O)N[C@@H](Cc1ccccc1)C(=O)O", "note": "[P4, HTCRNGENICF] (H-HTCRNGENICF-OH; N-terminus and C-terminus assumed)", "values": [{"measurement": "stability in vivo", "setting": "[1]", "result": "stably maintained"}, {"measurement": "time at which frequency of cells including the peptide was the highest", "setting": "[1]; [5]", "result": 24, "unit": "h"}, {"measurement": "time up to which frequency of cells including the peptide was maintained", "setting": "[1]; [5]", "result": "up to 72 hours"}]}, {"compound": "CN(Cc1cnc2nc(N)nc(N)c2n1)c1ccc(C(=O)N[C@@H](CCC(=O)O)C(=O)O)cc1", "note": "[Methotrexate]", "values": [{"measurement": "IL-17", "setting": "[3]; FACS frequency, Table 1", "result": "13.15 ± 1.34"}, {"measurement": "CD4 + CD25+", "setting": "[3]; [6]", "result": "3.7 ± 1.13"}, {"measurement": "CD4 + CD25 + FoxP3+", "setting": "[3]; [6]", "result": "1.45 ± 0.49"}, {"measurement": "ROR-gammaT", "setting": "[3]; FACS, Table 1", "result": "6.2 ± 0.42"}, {"measurement": "duration of the effect on severity score for arthritis", "setting": "[4]; FIG. 4, 10 weeks follow-up", "result": "effect decreased after 7 weeks"}, {"measurement": "severity score for arthritis", "setting": "[4]; external skin preparation, compared to PBS control group, followed 10 weeks, FIG. 4", "result": "reduction in the severity score for arthritis was also shown"}]}]}
